Where two headings read alike, the source gives them in different places.
Legend:
Cannabinoid CB2 Receptor = biological target: T1, Cannabinoid CB2 Receptor (Homo sapiens, UniProt P34972); assay: Binding assay, cannabinoid CB2 receptor ([3H]-CP-55,940 displacement, SK-N-MC cell membranes); settings: test concentration of 0.2 μM; human CB2 in SK-N-MC membranes; read-out: Cannabinoid CB2 Receptor Binding, percent inhibition
T1 construct: expressed in transfected cells; semi-purified membrane pellet
Outline: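 Membranes from SK-N-MC cells stably expressing human CB2 were incubated 90 min at 30 °C with 0.2 nM [3H]-CP-55,940 in Tris buffer, pH 7.5, with BSA; 10 uM WIN 55,212 defined non-specific binding. Filter-bound counts gave IC50 by linear regression, or % inhibition at 0.2 μM.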

Cannabinoid CB1 Receptor = biological target: T2, Cannabinoid CB1 Receptor (Homo sapiens, UniProt P21554); assay: Binding assay, cannabinoid CB1 receptor ([3H]-CP-55,940 displacement, SK-N-MC cell membranes); settings: for inhibition at 0.2 µM: read-out: Cannabinoid CB1 Receptor Binding, percent inhibition
T2 construct: expressed in transfected cells; semi-purified membrane pellet

[1] = test concentration of 0.2 μM, human CB1 in SK-N-MC membranes

T1 sequence (P34972 whole entry): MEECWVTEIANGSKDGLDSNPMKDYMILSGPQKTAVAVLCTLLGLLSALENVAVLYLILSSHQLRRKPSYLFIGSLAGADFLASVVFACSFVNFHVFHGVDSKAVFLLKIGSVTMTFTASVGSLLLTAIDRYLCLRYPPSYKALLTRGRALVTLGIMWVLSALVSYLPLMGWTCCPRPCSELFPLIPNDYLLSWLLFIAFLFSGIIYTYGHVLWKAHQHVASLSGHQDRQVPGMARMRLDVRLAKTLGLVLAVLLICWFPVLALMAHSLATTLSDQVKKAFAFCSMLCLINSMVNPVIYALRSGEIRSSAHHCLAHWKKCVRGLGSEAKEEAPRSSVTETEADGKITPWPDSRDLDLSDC
T2 sequence (P21554 whole entry): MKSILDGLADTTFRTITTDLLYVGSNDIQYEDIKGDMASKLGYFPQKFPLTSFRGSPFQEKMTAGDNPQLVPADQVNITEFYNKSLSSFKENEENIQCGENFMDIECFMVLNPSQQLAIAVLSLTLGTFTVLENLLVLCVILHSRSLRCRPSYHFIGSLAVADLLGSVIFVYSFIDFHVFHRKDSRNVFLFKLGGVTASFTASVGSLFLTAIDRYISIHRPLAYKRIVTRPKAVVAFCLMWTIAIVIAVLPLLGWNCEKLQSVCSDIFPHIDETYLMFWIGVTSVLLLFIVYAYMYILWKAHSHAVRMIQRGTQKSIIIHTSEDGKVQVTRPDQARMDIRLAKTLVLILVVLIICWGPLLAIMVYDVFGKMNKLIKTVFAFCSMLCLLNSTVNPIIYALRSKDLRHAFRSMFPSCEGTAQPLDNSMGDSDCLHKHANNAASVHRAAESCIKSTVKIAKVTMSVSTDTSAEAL

Row | Compound | inhibition at 0.2 µM (Cannabinoid CB2 Receptor) | IC50 (Cannabinoid CB1 Receptor) | inhibition at 0.2 µM (Cannabinoid CB1 Receptor; [1]) | inhibition at 0.2 µM (Cannabinoid CB1 Receptor)
1 | O=C(NN1CCCCCC1)c1nn(-c2ccc(Cl)cc2Cl)c2c1COC/C2=C\c1ccc(Cl)s1 [Cpd 53, (7Z)-7-(5-chloro-thiophen-2-ylmethylene)-1-(2,4-dichloro-phenyl)-1,4,6,7-tetrahydro-pyrano[4,3-c]pyrazole-3-carboxylic acid azepan-1-ylamide] | 10% | 10 nM | 83% | 
2 | O=C(NN1CCCCC1)c1nn(-c2ccc(Cl)cc2Cl)c2c1COC/C2=C\c1ccc(Cl)s1 [Cpd 54, (7Z)-7-(5-chloro-thiophen-2-ylmethylene)-1-(2,4-dichloro-phenyl)-1,4,6,7-tetrahydro-pyrano[4,3-c]pyrazole-3-carboxylic acid piperidin-1-ylamide] | 13% | 20 nM | 78% | 
3 | CC1CCCC(C)N1NC(=O)c1nn(-c2ccc(Cl)cc2Cl)c2c1COC/C2=C\c1ccc(Cl)s1 (centres unmarked) [Cpd 55, (7Z)-7-(5-chloro-thiophen-2-ylmethylene)-1-(2,4-dichloro-phenyl)-1,4,6,7-tetrahydro-pyrano[4,3-c]pyrazole-3-carboxylic acid (2,6-dimethyl-piperidin-1-yl)-amide] | 11% |  | 65% | 
4 | O=C(NN1CC2CCCC2C1)c1nn(-c2ccc(Cl)cc2Cl)c2c1COC/C2=C\c1ccc(Cl)s1 (centres unmarked) [Cpd 56, (7Z)-7-(5-chloro-thiophen-2-ylmethylene)-1-(2,4-dichloro-phenyl)-1,4,6,7-tetrahydro-pyrano[4,3-c]pyrazole-3-carboxylic acid (hexahydro-cyclopenta[c]pyrrol-2-yl)-amide] | 0% | 40 nM | 74% | 
5 | O=C(NN1CCCC1)c1nn(-c2ccc(Cl)cc2Cl)c2c1COC/C2=C\c1ccc(Cl)s1 [Cpd 57, (7Z)-7-(5-chloro-thiophen-2-ylmethylene)-1-(2,4-dichloro-phenyl)-1,4,6,7-tetrahydro-pyrano[4,3-c]pyrazole-3-carboxylic acid pyrrolidin-1-ylamide] | 15% |  | 67% | 
6 | O=C(N[C@H](CO)c1ccccc1)c1nn(-c2ccc(Cl)cc2Cl)c2c1COC/C2=C\c1ccc(Cl)s1 [Cpd 58, (7Z)-7-(5-chloro-thiophen-2-ylmethylene)-1-(2,4-dichloro-phenyl)-1,4,6,7-tetrahydro-pyrano[4,3-c]pyrazole-3-carboxylic acid [(S)-2-hydroxy-1-phenyl-ethyl]-amide] | 0% |  | 59% | 
7 | CC(NC(=O)c1nn(-c2ccc(Cl)cc2Cl)c2c1COC/C2=C\c1ccc(Cl)s1)c1ccccn1 (centres unmarked) [Cpd 60, (7Z)-7-(5-chloro-thiophen-2-ylmethylene)-1-(2,4-dichloro-phenyl)-1,4,6,7-tetrahydro-pyrano[4,3-c]pyrazole-3-carboxylic acid (1-pyridin-2-yl-ethyl)-amide] | 7% |  | 58% | 
8 | C[C@@H](NC(=O)c1nn(-c2ccc(Cl)cc2Cl)c2c1COC/C2=C\c1ccc(Cl)s1)c1ccccn1 [Cpd 61, (7Z)-7-(5-chloro-thiophen-2-ylmethylene)-1-(2,4-dichloro-phenyl)-1,4,6,7-tetrahydro-pyrano[4,3-c]pyrazole-3-carboxylic acid [(R)-1-pyridin-2-yl-ethyl]-amide] | 9.5% | 50 nM | 84% | 
9 | C[C@@H](NC(=O)c1nn(-c2ccc(Cl)cc2Cl)c2c1COC/C2=C\c1ccc(Cl)o1)C1CCCCC1 [Cpd 62, (7Z)-7-(5-chloro-furan-2-ylmethylene)-1-(2,4-dichloro-phenyl)-1,4,6,7-tetrahydro-pyrano[4,3-c]pyrazole-3-carboxylic acid [(R)-1-cyclohexyl-ethyl]-amide] | 17% | 30 nM |  | 74%

Reference: US20100069341A1, “TETRAHYDRO-PYRANOPYRAZOLE CANNABINOID MODULATORS” (priority 2005, published 2010)
